What was measured:
Type in all cases: cell-based
[1] = tested on: S. mutans strains; assay: Overlay technique, panel of S. mutans strains; details: mutacin 1140 produced by a JH1140 strain
Description: (§1) Three drops of an overnight THB culture of the indicator strain were mixed with 3 ml of molten top agar and poured evenly over the surface of the plate. After an additional 24 hours of incubation, clear zones surrounding the test strain were measured.
(§2) The inhibitory factor inhibited 124 of 125 S. mutans strains tested. […] The following table summarizes the spectrum of activity found for the lantibiotic.

[2] = tested on: Gram positive organisms; assay: Overlay technique, Gram positive organisms; details: including Streptococcus mitts, Streptococcus pyogenes, Staphylococcus aureus, Actinomyces species
Description: as §1, §2

[3] = tested on: Gram-negative bacteria; assay: Overlay technique, Gram-negative bacteria
Description: as §1, §2

[4] = tested on: other strains of S. mutans; assay: Sterility of agar taken from clear zones; details: loopfuls of agar taken from clear zones were sterile

mutacin 1140
S. mutans strains inhibited of strains tested [1]: 124 of 125
Sensitivity of most Gram positive organisms to inhibitory activity [2]: sensitive
Inhibition of Gram-negative bacteria [3]: mostly resistant
Kind of effect on other strains of S. mutans [4]: bacteriocidal
